Key:
[1] = test system: primary human embryonic lung (HEL) fibroblast cells; experiment: Cytostatic activity, Coulter counter; format: cell-based; details: Homo sapiens, Fibroblast; 72 h, cell number by Coulter counter; primary fibroblasts
Protocol: (§1) The experiments were carried out on six human tumour and one murine cell lines, which are derived from five solid tumour types and two (one murine and one human) suspension tumour cell lines. The following cell lines were used: HCT 116 (colon carcinoma), SW 620 (colon carcinoma), MCF-7 (breast carcinoma), H 460 (lung carcinoma), L1210 (murine leukemia), CEM (human lymphoma) and HeLa (cervix carcinoma). […] Compounds 3d and 3e with a benzene ring in the amide moiety, exerted a somewhat stronger (but still rather poor) cytostatic effect (IC50 ≈ 20-90 µM). […] The compounds were also equally cytostatic against primary human embryonic lung (HEL) fibroblast cells (Table 2). The obtained data clearly point to the obligatory presence of the [4-chloro-3-(trifluoromethyl)phenyl]carbamoyl group being crucial for high potency. Also, the 4a–e series of compounds are far more lipophilic than the 2 and 3 series of compounds, which may be related to their increased cytostatic potential.
(§2) The cytostatic activity of the tested compounds against murine leukemia L1210, human cervix carcinoma HeLa, human embrionic lung (HEL) and T-lymphocyte CEM cells was determined with cells grown in suspension (L1210, CEM) or monolayers (HeLa, HEL) in 200 µL-wells of 96-well microtiter plates (initial cell number: 5–7.5 × 10^4 cells/well). After 48 (L1210) or 72 (CEM, HeLa, HEL) h, the tumour cell number was determined by the use of a Coulter counter.

CEM (human lymphoma) = experiment: Cytostatic activity, Coulter counter; format: cell-based; details: Homo sapiens; 72 h, cell number by Coulter counter; read-out: Tumour cell growth/IC50 CEM
Protocol: as §1, §2

L1210 (murine leukemia) = experiment: Cytostatic activity, Coulter counter; format: cell-based; details: Mus musculus, L1210; 48 h, cell number by Coulter counter; read-out: Tumour cell growth/IC50 L1210
Protocol: as §1, §2

HeLa (cervix carcinoma) = experiment: Cytostatic activity, Coulter counter; format: cell-based, human; details: Homo sapiens, HeLa; 72 h, cell number by Coulter counter; read-out: Tumour cell growth/IC50 HeLa
Protocol: as §1, §2

CaCo-2 cell cultures = experiment: Uptake at apical side and release at basolateral side of CaCo-2 cell cultures; format: in vitro ADME, human; details: 100 µmol·L^–1 at apical side, 0-24 h, HPLC
Excerpt: Derivatives 2a, 3a and 4a have been examined for their efficiency of uptake at the apical site and subsequent delivery at the basolateral site of colon carcinoma CaCo-2 cell cultures. This model system can be used to predict the potential of a drug to show oral bioavailability. Sorafenib was included as the reference compound. […] The molecular basis of this phenomenon is yet unclear.
Figure 1 Release of the tested compounds at the basolateral side by CaCo-2 cell cultures. Hundred micromolar concentrations of the tested compounds were added at the apical side of confluent CaCo-2 cell cultures, and the appearance of the intact tested compound at the basolateral side was measured by HPLC analysis.
Human colon carcinoma CaCo-2 cells were seeded in the inner wells of a double-chamber-well-tray at 150,000 cells (0.5 mL) per 1 mL-well. The outer wells also contain 0.5 mL medium (without cells). After the cells were grown to confluency (~2 days) at 37 °C in a humidified CO2-controlled atmosphere, 100 µmol·L^–1 tested compound (final concentration) was added to the inner well, and the medium from the outer wells was replaced by 800 µL PBS (containing 10% foetal bovine serum). At different time points (i.e., 0, 2, 4, 6, 8 and 24 h), 50 µL was removed from the outer wells and mixed with 100 µL cold methanol. The mixture was left on ice for 10 min, centrifuged to remove the precipitate, and the supernatant was analysed by HPLC (reversed phase) to determine the drug concentration that appeared in the outer wells (reflecting basolateral drug efflux) in function of time.

[2] = test system: HCT 116 (colon carcinoma); experiment: Cytostatic activity, MTT assay; format: cell-based, human; details: Homo sapiens, HCT-116, 72 h, read-out: Tumour cell growth/IC50 HCT 116
Protocol: as §1
(§3) HCT 116, SW 620, MCF-7, and H 460 cells were cultured as monolayers and maintained in Dulbecco’s modified Eagle medium (DMEM), supplemented with 10% fetal bovine serum (FBS), 2 mmol·L^–1 L-glutamine, 100 U·mL^–1 penicillin and 100 μg·mL^–1 streptomycin in a humidified atmosphere with 5% CO2 at 37 °C. The growth inhibition activity was assessed as described previously, according to the slightly modified procedure of the National Cancer Institute, Developmental Therapeutics Program. Briefly, the cells were seeded onto standard 96-well microtiter plates on day 0. The cell concentrations were adjusted according to the cell population doubling time (PDT): 3000 cells/well for HCT116 and SW 620 cell lines (PDT = 20–24 h) and 4,000 cells/well for MCF-7 cell lines (PDT = 33 h). Tested agents were then added in five consecutive 10-fold dilutions (10^–8 to 10^–4 mol·L^–1) and incubated for further 72 h. Working dilutions were freshly prepared on the day of testing. The solvent (DMSO) was also tested for eventual inhibitory activity by adjusting its concentration to be the same as in working concentrations (maximal concentration of DMSO was 0.25%). After 72 h of incubation, the cell growth rate was evaluated by performing the MTT assay (Promega) which detects dehydrogenase activity in viable cells. The absorbency (OD, optical density) was measured on a microplate reader at 570 nm. Each test point was performed in quadruplicate in at least three individual experiments. The results are expressed as IC50, which is the concentration necessary for 50% of inhibition. […] Each result is a mean value from three separate experiments.

MCF-7 (breast carcinoma) = experiment: Cytostatic activity, MTT assay; format: cell-based, human; details: Homo sapiens, MCF7, 72 h, read-out: Tumour cell growth/IC50 MCF-7
Protocol: as §1, §3

H 460 (lung carcinoma) = experiment: Cytostatic activity, MTT assay; format: cell-based, human; details: Homo sapiens, NCI-H460, 72 h, read-out: Tumour cell growth/IC50 H 460
Protocol: as §1, §3

SW 620 (colon carcinoma) = experiment: Cytostatic activity, MTT assay; format: cell-based, human; details: Homo sapiens, SW-620, 72 h, read-out: Tumour cell growth/IC50 SW 620
Protocol: as §1, §3

[3] = test system: protein synthesis in CEM cells; experiment: Antimetabolic activity: [4,5-3H]Leu incorporation (protein synthesis) in CEM cell cultures; format: cell-based; details: Homo sapiens, CCRF-CEM, ~20 h, TCA-insoluble material
Excerpt: (§4) A variety of compounds (2a, 3a, 4a with a cycloalkyl substituent directly attached to nitrogen atom, 2c, 3c, 4c with a cycloalkyl bound to nitrogen through a short spacer and 2e, 3e, 4e with an aromatic substituent) have been investigated on their inhibitory activity against DNA, RNA and protein synthesis in CEM cell cultures. The compounds were equally inhibitory to dThd (DNA synthesis), Urd (RNA synthesis) and Leu (protein synthesis) incorporation into TCA-insoluble cell material. The 2 series of compounds were least inhibitory whereas the 4 series were most inhibitory (IC50 in the lower micromolar range). Their antimetabolic IC50 values closely corresponded to their antiproliferative IC50 values. They also behaved as sorafenib in terms of antimetabolic potential (Table 3).
(§5) The procedures have been modified from previously described methods. Human CEM cells were seeded in 96-well microtiter plates at 10 × 10^4 cells/200 µL-well in the presence of serial dilutions of the tested compounds. Then, 0.25 µCi of [CH3-^3H]dThd (radiospecificity: 52 Ci/mmol) or 1 µCi of [5-^3H]Urd (radiospecificity: 26 Ci/mmol) or [4,5-^3H]Leu (radiospecificity: 160 Ci/mmol) were added and the drug-exposed tumour cell cultures further incubated at 37 °C for ~20 h. Then the content of each well was transfered to glass fiber discs (Wattman, GE Healthcare, Maidstone, UK), mounted on a manifold (Millipore, Billerica, MA, USA) and subsequently washed with PBS (to remove the radiolabel material that has not been incorporated in the cellular macromolecules), 10% and 5% trichoroacetic acid (TCA) (to precipitate DNA, RNA and proteins) and ethanol. Then, the radioactivity (TCA precipitate) associated with each disc was determined in a liquid scintillation counter (Packard, Palo Alto, CA, USA).

[4] = test system: DNA synthesis in CEM cells; experiment: Antimetabolic activity: [CH3-3H]dThd incorporation (DNA synthesis) in CEM cell cultures; format: cell-based; details: Homo sapiens, CCRF-CEM, ~20 h, TCA-insoluble material
Excerpt: as §4, §5

[5] = test system: RNA synthesis in CEM cells; experiment: Antimetabolic activity: [5-3H]Urd incorporation (RNA synthesis) in CEM cell cultures; format: cell-based; details: Homo sapiens, CCRF-CEM, ~20 h, TCA-insoluble material
Excerpt: as §4, §5

[6] = test system: panel of carcinoma, lymphoma and leukemia tumour cell lines; experiment: Cytostatic activity across the panel of tumour cell lines; format: cell-based; details: Table 2; read-out: IC50 (cytostatic effect, range over cell lines)
Protocol: as §1, with “The obtained data clearly point to the obligatory presence of the [4-chloro-3-(trifluoromethyl)phenyl]carbamoyl group being crucial for high potency. Also, the 4a–e series of compounds are far more lipophilic than the 2 and 3 series of compounds, which may be related to their increased cytostatic potential.” left out
HCT 116, SW 620, MCF-7, and H 460 cells were cultured as monolayers and maintained in Dulbecco’s modified Eagle medium (DMEM), supplemented with 10% fetal bovine serum (FBS), 2 mmol·L^–1 L-glutamine, 100 U·mL^–1 penicillin and 100 μg·mL^–1 streptomycin in a humidified atmosphere with 5% CO2 at 37 °C. The growth inhibition activity was assessed as described previously, according to the slightly modified procedure of the National Cancer Institute, Developmental Therapeutics Program. […] After 72 h of incubation, the cell growth rate was evaluated by performing the MTT assay (Promega) which detects dehydrogenase activity in viable cells. The absorbency (OD, optical density) was measured on a microplate reader at 570 nm. […]

Structure (SMILES) | IC50 [1] [µM] | IC50 (CEM (human lymphoma)) [µM] | IC50 (L1210 (murine leukemia)) [µM] | IC50 (HeLa (cervix carcinoma)) [µM] | Drug delivery at the basolateral site compared with sorafenib (CaCo-2 cell cultures) | IC50 [2] [µM] | IC50 (MCF-7 (breast carcinoma)) [µM] | IC50 (H 460 (lung carcinoma)) [µM] | IC50 (SW 620 (colon carcinoma)) [µM] | IC50 [3] [µM] | IC50 [4] [µM] | IC50 [5] [µM] | IC50 [6] [µM] | melting point [°C]
Nc1ccc(Oc2ccnc(C(=O)NC3CCCC3)c2)cc1 [Compound 3a, 4-(4-Aminophenoxy)-N-cyclopentylpyridine-2-carboxamide] | > 100 | ≥ 100 | 121 ± 50.5 | 77 ± 3.4 | higher drug delivery at the basolateral site than sorafenib | 54 ± 21 | 53 ± 40 | > 100 | ≥ 100 | > 100 | > 100 | > 100 | – | –
O=C(Nc1ccc(Oc2ccnc(C(=O)NC3CCCC3)c2)cc1)Nc1ccc(Cl)c(C(F)(F)F)c1 [Compound 4a, 4-[4-[[4-Chloro-3-(trifluoromethyl)phenyl]carbamoylamino]phenoxy]-N-cyclopentyl-pyridine-2-carboxamide] | 2.8 | 4.2 ± 0.6 | 4.2 ± 0.8 | 3.1 ± 0.6 | less efficient than the reference compound | 3 ± 0.5 | 4 ± 1 | 1 | 2 ± 0.4 | 6.1 ± 0.7 | 12.5 ± 6.7 | 7.7 ± 2.1 | – | –
O=C(NC1CCCC1)c1cc(Cl)ccn1 [Compound 2a, 4-Chloro-N-cyclopentylpyridine-2-carboxamide] | > 100 | > 100 | > 100 | > 100 | higher drug delivery at the basolateral site than sorafenib | > 100 | > 100 | ≥ 100 | > 100 | > 100 | > 100 | > 100 | – | –
Nc1ccc(Oc2ccnc(C(=O)NCc3ccccc3)c2)cc1 [Compound 3d, 4-(4-Aminophenoxy)-N-benzylpyridine-2-carboxamide] | > 100 | 94 ± 2.2 | 66 ± 3.1 | 94 ± 1.9 | – | 29 ± 4 | 29 ± 13 | 42 ± 9 | 37 ± 6 | – | – | – | 20 to 90 | –
Nc1ccc(Oc2ccnc(C(=O)NCCc3ccccc3)c2)cc1 [Compound 3e, 4-(4-Aminophenoxy)-N-phenylethylpyridine-2-carboxamide] | > 100 | 42 ± 3 | 63 ± 8.9 | 39 ± 3 | – | 25 ± 2 | 34 ± 17 | 20 | 20 ± 7 | > 100 | > 100 | 49.9 ± 17.9 | 20 to 90 | –
O=C(Nc1ccc(Oc2ccnc(C(=O)NCC3CCCCC3)c2)cc1)Nc1ccc(Cl)c(C(F)(F)F)c1 [Compound 4c, 4-[4-[[4-Chloro-3-(trifluoromethyl)phenyl]carbamoylamino]phenoxy]-N-cyclohexylmethyl-pyridine-2-carboxamide] | 2.9 | 2 ± 0.5 | 1.8 ± 0.3 | 2.7 ± 1.8 | – | 3 ± 1 | 2 ± 0.1 | 2 ± 0.2 | 3 ± 0.4 | 27.4 ± 12.7 | 20.1 ± 10.9 | 12.2 ± 8.4 | – | 156 to 160

From paper PMC6268433, “New Sorafenib Derivatives: Synthesis, Antiproliferative Activity Against Tumour Cell Lines and Antimetabolic Evaluation” (Molecules, 2012)
